Drawing on ChEMBL document CHEMBL4483862, “Open-source discovery of chemical leads for next-generation chemoprotective antimalarials” (2018), this text covers IC50 and IC90 for 26 compounds.

This experiment has as its system Plasmodium berghei. The experiment can be described thus: Luciferase/luciferin-expressing antifolate-resistant parasites were used to infect a culture of HepG2 cells that were pre-incubated with compounds. Infected hepatocytes emit light due to the luciferase reaction. Assay results are presented as the percent inhibition of light emission compared to control. […]. Type of experiment: functional. The note with it: sporozoite; for IC90: read-out: LUCIFERASE INFECTION ASSAY - IC90.

Setting [1] is: read-out: LUCIFERASE INFECTION ASSAY - IC50.

`O=C(Nc1ccc(F)cc1)C(Sc1nnc(-c2cccs2)[nH]1)c1ccccc1` (configuration not stated): the IC90 is over 10 µM. Further, the IC50 (PBLUC_HILL_SLOPE 4.17, PBLUC_R_SQUARED 0.509, read-out: LUCIFERASE INFECTION ASSAY - IC50) came out at 6.11 µM.
In the case of `O=S(=O)(c1cc(C(F)(F)F)cc(C(F)(F)F)c1)N1CCc2c([nH]c3ccccc23)C1C(F)(F)F` (configuration not stated), the concentration for an effect of 90% (IC90) is over 6.39 µM. Further, under “PBLUC_HILL_SLOPE 1.65, PBLUC_R_SQUARED 0.099, read-out: LUCIFERASE INFECTION ASSAY - IC50”, the concentration for half-maximal inhibition (IC50) is 5.02 µM.
Take `COc1cccc(-c2cn3c(-c4ccc5c(ccn5C)c4)cnc3cn2)c1F`: the IC90 turned out to be 0.145 µM. In addition, where the note is “HEPG2TOX_HILL_SLOPE 1.41, HEPG2TOX_R_SQUARED 0.854, PBLUC_HILL_SLOPE 2.39, PBLUC_R_SQUARED 0.955, read-out: LUCIFERASE INFECTION ASSAY - IC50”, the IC50 was 0.0579 µM.
On to `Cc1cc(C)c2c(C)c(C(=O)Nc3nc4ccccc4s3)sc2n1`, for which the IC90 was 1.17 µM. Also, under setting [1], the IC50 worked out at 0.841 µM.
For the compound `CC(=O)N1CCN(C(=O)CCC(=O)Nc2nc3ccccc3s2)CC1`, the IC90 was over 10 µM. Moreover, the IC50 (PBLUC_HILL_SLOPE 1.05, PBLUC_R_SQUARED 0.239, read-out: LUCIFERASE INFECTION ASSAY - IC50) is over 10 µM.
For `Cc1cc(CNC(C)c2cc(F)c(Cl)cc2Cl)cc(C)c1O` (configuration not stated), the concentration for an effect of 90% (IC90) was over 10 µM. Further, the IC50 under setting [1] was over 10 µM.
As to `NS(=O)(=O)c1ccc(CCNc2nn3c(-c4cccc(C(F)(F)F)c4)cnc3s2)cc1`, the IC90 was over 7.06 µM. Besides, the IC50 (FFLUC_HILL_SLOPE 7.49, FFLUC_R_SQUARED 0.26, read-out: LUCIFERASE INFECTION ASSAY - IC50) is over 7.06 µM.
`O=C(CN1C(=O)S/C(=C\c2ccco2)C1=O)c1ccc([N+](=O)[O-])cc1`: the IC90 was over 10 µM. In addition, the IC50 (HEPG2TOX_HILL_SLOPE 0.122, HEPG2TOX_R_SQUARED 0.0589, read-out: LUCIFERASE INFECTION ASSAY - IC50) is over 10 µM.
Consider `O=C(NC1=C(Nc2ccc3c(c2)OCCO3)C(=O)c2ccccc2C1=O)c1ccc(Cl)cc1`, for which the IC90 was over 10 µM. Also, the IC50 (FFLUC_HILL_SLOPE 16.8, FFLUC_R_SQUARED 0.568, PBLUC_HILL_SLOPE 3.91, PBLUC_R_SQUARED 0.215, read-out: LUCIFERASE INFECTION ASSAY - IC50) was found to be 6.65 µM.
`Cc1cc(Oc2ccc(-c3ccccc3)cc2)nc(C)n1`: the IC90 was over 10 µM. Further, the IC50 under setting [1] was over 10 µM.
Turning to `CS(=O)(=O)c1ccc(CN2CCN3C(C(=O)Nc4ccc(F)c(Cl)c4)=COC3=NC2=O)cc1`, the IC90 was over 10 µM. For the same compound, the IC50 (HEPG2TOX_HILL_SLOPE 2.2, HEPG2TOX_R_SQUARED 0.936, PBLUC_HILL_SLOPE 1.17, PBLUC_R_SQUARED 0.243, read-out: LUCIFERASE INFECTION ASSAY - IC50) is over 10 µM.
Consider `COc1cc2c(cc1NC(=O)C(C)N1CCN(C/C=C/c3ccccc3)CC1)oc1ccccc12` (configuration not stated), for which the IC90 was over 10 µM. In addition, the half-maximal inhibitory concentration (IC50) under setting [1] was 9.73 µM.
For `Cc1cc(C(=O)COC(=O)c2[nH]nc3ccccc23)c(C)n1Cc1cccs1`, the 90% effect concentration (IC90) stood at 6.39 µM. Further, under “PBLUC_HILL_SLOPE 1.56, PBLUC_R_SQUARED 0.399, read-out: LUCIFERASE INFECTION ASSAY - IC50”, the IC50 was 1.56 µM.
Turning to `CS(=O)(=O)NCCc1ccc(C(=O)Nc2ccc(Cl)c(C(F)(F)F)c2)s1`, the IC90 is over 10 µM. Further, the half-inhibitory concentration (IC50) (HEPG2TOX_HILL_SLOPE 16.3, HEPG2TOX_R_SQUARED 0.947, PBLUC_HILL_SLOPE 9.17, PBLUC_R_SQUARED 0.224, read-out: LUCIFERASE INFECTION ASSAY - IC50) was 8.32 µM.
Turning to `CCCCC#CC1(O)c2ccccc2C(=O)N1c1ccccc1` (configuration not stated), the IC90 amounted to 9.4 µM. For the setting “HEPG2TOX_HILL_SLOPE 16.6, HEPG2TOX_R_SQUARED 0.582, PBLUC_HILL_SLOPE 7.49, PBLUC_R_SQUARED 0.197, read-out: LUCIFERASE INFECTION ASSAY - IC50”, the IC50 was 7.01 µM.
As to `Cc1cc(-c2cn3c(-c4ccc5ncccc5c4)cnc3cn2)cc(C)c1O`, the IC90 was over 9.01 µM. Besides, the IC50 under setting [1] was determined as 8.6 µM.
Consider `COc1ccc(/C=C2\N=C(SCC(=O)O)N(Cc3ccccc3)C2=O)cc1`, for which the IC90 amounted to 0.545 µM. Besides, the IC50 (PBLUC_HILL_SLOPE 72.9, PBLUC_R_SQUARED 0.433, read-out: LUCIFERASE INFECTION ASSAY - IC50) worked out at 0.529 µM.
Take `CN(C)C(=O)c1cccc(-c2cn3c(-c4ccc(C(C)(C)C)cc4)cnc3cn2)c1`: the IC90 was over 8.28 µM. Besides, the IC50 (PBLUC_HILL_SLOPE 1.19, PBLUC_R_SQUARED 0.783, read-out: LUCIFERASE INFECTION ASSAY - IC50) was found to be 2.27 µM.
`Cc1cc(/C=N/Nc2ccccc2[N+](=O)[O-])c(C)n1CC(C)C`: the IC90 was 8.36 µM. For the same compound, the IC50 (PBLUC_HILL_SLOPE 1.12, PBLUC_R_SQUARED 0.805, read-out: LUCIFERASE INFECTION ASSAY - IC50) was determined as 1.17 µM.
As to `COc1ccc(S(=O)(=O)NN(C)c2nc(C(F)(F)F)nc3ccccc23)cc1`, the IC90 is 7.15 µM. Moreover, for the setting “HEPG2TOX_HILL_SLOPE 2.85, HEPG2TOX_R_SQUARED 0.931, PBLUC_HILL_SLOPE 2.16, PBLUC_R_SQUARED 0.738, read-out: LUCIFERASE INFECTION ASSAY - IC50”, the IC50 worked out at 2.59 µM.
With `O=C(/C=C/c1cccs1)N1CCN(S(=O)(=O)c2c(Cl)cc(Br)cc2Cl)CC1`, the 90% effect concentration (IC90) was over 10 µM. The IC50 (PBLUC_HILL_SLOPE 3.28, PBLUC_R_SQUARED 0.115, read-out: LUCIFERASE INFECTION ASSAY - IC50) was found to be 5.38 µM.
For the compound `Cc1cnc(NC(=O)c2ccc(N(C)C3CCCCC3)cc2)s1`, the IC90 stood at 0.327 µM. Where the note is “HEPG2TOX_HILL_SLOPE 7.67, HEPG2TOX_R_SQUARED 0.65, PBLUC_HILL_SLOPE 1.69, PBLUC_R_SQUARED 0.349, read-out: LUCIFERASE INFECTION ASSAY - IC50”, the IC50 amounted to 0.0892 µM.
Consider `Cn1cc(/C=C/C(=O)Nc2ncc(Cc3ccccc3)s2)cn1`, for which the IC90 was found to be 2.15 µM. Besides, the half-inhibitory concentration (IC50) (HEPG2TOX_HILL_SLOPE 0.97, HEPG2TOX_R_SQUARED 0.894, PBLUC_HILL_SLOPE 1.67, PBLUC_R_SQUARED 0.671, read-out: LUCIFERASE INFECTION ASSAY - IC50) is 0.578 µM.
Turning to `C[C@H](NC(=O)c1sc2ccccc2c1Cl)c1nnc2ccccn12`, the IC90 is over 9.25 µM. In addition, under setting [1], the IC50 was over 9.25 µM.
In the case of `Cn1c(-c2cccc(C(F)(F)F)c2)cc2c(Nc3cccnc3)nccc21`, the IC90 is over 10 µM. Moreover, the half-maximal inhibitory concentration (IC50) (FFLUC_HILL_SLOPE 13.4, FFLUC_R_SQUARED 0.159, PBLUC_HILL_SLOPE 11.7, PBLUC_R_SQUARED 0.342, read-out: LUCIFERASE INFECTION ASSAY - IC50) was 9.06 µM.
`CCCCNC(=O)c1c(NC(=O)c2ccccc2)nc2ccc(C)cn12`: the IC90 is 6.8 µM. Besides, for the setting “FFLUC_HILL_SLOPE 60.4, FFLUC_R_SQUARED 0.28, HEPG2TOX_HILL_SLOPE 6.52, HEPG2TOX_R_SQUARED 0.955, PBLUC_HILL_SLOPE 4.31, PBLUC_R_SQUARED 0.763, read-out: LUCIFERASE INFECTION ASSAY - IC50”, the IC50 amounted to 4.08 µM.

Usually IC50 stands for the point on the concentration scale where inhibition reaches its midpoint. The IC90 is the concentration at which the effect reaches the 90% level.
